Results reported in paper PMC11094580 (EFSA Journal, 2024).
Read-outs that look alike come from different tables or passages of the source.

Legend:
[1] = ref Gardana et al. (2007), cited from earlier work
Wistar rats [2] = assay: In vivo comet assay in liver and duodenum; set-up: species or system rat; details: positive control 200 mg/kg bw
Wistar rats [3] = assay: In vivo micronucleus assay in peripheral blood; set-up: species or system rat; details: positive control, 10 mg/kg bw, 48 h before sacrifice
[4] = test system: Intestinal bacteria isolated from human faeces; details: 5 mg flavonoids in 50 mL broth, 2 days, anaerobic; ref Kim et al. (1998); cited from earlier work
Clostridium orbiscindens = details: ref Schoefer et al. (2003); cited from earlier work

For `COc1ccc([C@@H]2CC(=O)c3c(O)cc(O)cc3O2)cc1O` [hesperetin, reference compound], the “mean C max (plasma hesperetin)” value ([1]; BOJ 150 mL, 51 mg hesperetin) is listed as 43 ng/mL and the “mean C max (plasma hesperetin)” value ([1]; BOJ 300 mL, 102 mg hesperetin) is listed as 80 ng/mL.
In the case of `CCOS(C)(=O)=O` [EMS, ethyl methanesulfonate], the “% tail intensity” value (Wistar rats [2]; duodenum) was 19.67% and the “% tail intensity” value (Wistar rats [2]; liver) was 18.30%.
With `O=P1(N(CCCl)CCCl)NCCCO1` (stereo not shown) [CPA, cyclophosphamide, reference compound] the “% MNPCE frequency” value (Wistar rats [3]) was 0.93 ± 0.16%.
In the case of `C[C@@H]1O[C@@H](O[C@H]2[C@H](Oc3cc(O)c4c(c3)O[C@H](c3ccc(O)cc3)CC4=O)O[C@H](CO)[C@@H](O)[C@@H]2O)[C@H](O)[C@H](O)[C@H]1O` [naringin, reference compound], the “Results: bacterial metabolism” value [4] is given as “metabolised to naringenin at early time” and the “Results: conversion by C. orbiscindens” value (Clostridium orbiscindens) is given as “did not convert”.
